Measurements from PMC12396409, “Screening and hit evaluation of a microbial metabolite library against the pathogenic Plasmodium falciparum and Toxoplasma gondii parasites” (International Journal for Parasitology: Drugs and Drug …, 2025).
Where two headings read alike, the source gives them in different places. Where a SMILES comes first, the peptide text is derived from it. [ ]: non-standard residue; d: D form. Hiv = CC(C)[C@H](O)C(=O)O

What was measured:
[1] = system: P. falciparum 3D7 parasites; assay: P. falciparum growth inhibition assay, 2-cycle (120 h treatment), delayed-death screen and dose-response; assay type: cell-based, Plasmodium falciparum; conditions: 120 h; for activity at 2 µg/mL: Plasmodium falciparum
[2] = system: T. gondii RH strain (RH-Tub-eYFP) tachyzoites; assay: microbe, parasite or virus in culture; assay type: cell-based, Toxoplasma gondii; conditions: 72 h, 72 h; for percent parasite growth at 2 µg/mL: Toxoplasma gondii
[3] = system: P. falciparum 3D7 parasites; assay: P. falciparum growth inhibition assay, 1-cycle (72 h treatment), SYBR DNA staining (library screen at 2 μg/mL and dose-response); assay type: cell-based, Plasmodium falciparum; conditions: 72 h; for activity at 2 µg/mL: Plasmodium falciparum
[4] = P. falciparum, parasite screen 2 μg/mL, % growth, replicate 1
[5] = P. falciparum, parasite screen 2 μg/mL, % growth, replicate 2
[6] = T. gondii, parasite screen 2 μg/mL, % growth, replicate 1
[7] = T. gondii, parasite screen 2 μg/mL, % growth, replicate 2
[8] = library screen at 2 μg/mL, % growth, replicate 1
[9] = library screen at 2 μg/mL, % growth, replicate 2
[10] = P. falciparum, screen at 2 μg/mL, replicate 1
[11] = P. falciparum, screen at 2 μg/mL, replicate 2
[12] = T. gondii, screen at 2 μg/mL, replicate 1
[13] = T. gondii, screen at 2 μg/mL, replicate 2

SMILES: O=c1cccc2n1C[C@H]1C[C@@H]2CN2CCCC[C@H]12 [Anagyrine]
- activity at 2 µg/mL ([1]; 3D7, 120 h, library screen at 2 μg/mL, % growth, replicate 1, read-out: Pf_120h_%Growth_Rep1): 106%
- activity at 2 µg/mL ([1]; 3D7, 120 h, library screen at 2 μg/mL, % growth, replicate 2, read-out: Pf_120h_%Growth_Rep2): 103%
- percent parasite growth at 2 µg/mL ([2]; library screen at 2 μg/mL, % growth, replicate 1, read-out: Tg_72h_%Growth_Rep1): 136%
- percent parasite growth at 2 µg/mL ([2]; library screen at 2 μg/mL, % growth, replicate 2, read-out: Tg_72h_%Growth_Rep2): 82.1%
- activity at 2 µg/mL ([3]; 3D7, 72 h, library screen at 2 μg/mL, % growth, replicate 1, read-out: Pf_72h_%Growth_Rep1): 88.8%
- activity at 2 µg/mL ([3]; 3D7, 72 h, library screen at 2 μg/mL, % growth, replicate 2, read-out: Pf_72h_%Growth_Rep2): 124%

SMILES: CCCCC/C=C/C=C\C=C/[C@H](O)[C@H](C)[C@H](C/C=C/[C@@H]1OC(=O)C=C[C@@H]1O)OS(=O)(=O)[O-].[Na+] [Sultriecin]
- Pf_120h_%Growth_Rep1 [1, 4]: 87.78%
- Pf_120h_%Growth_Rep2 [1, 5]: 130.19%
- Tg_72h_%Growth_Rep1 [2, 6]: 105.98%
- Tg_72h_%Growth_Rep2 [2, 7]: 90.75%
- Pf_72h_%Growth_Rep1 [3, 4]: 90.74%
- Pf_72h_%Growth_Rep2 [3, 5]: 116.83%

SMILES: C=C[C@@H](CO)[C@H]1CCN2CCc3c([nH]c4ccccc34)[C@@H]2C1 [Anthirine]
- Pf_120h_%Growth_Rep1 [1, 8]: 66.95%
- Pf_120h_%Growth_Rep2 [1, 9]: 48.16%
- Tg_72h_%Growth_Rep1 [2, 8]: 43.71%
- Tg_72h_%Growth_Rep2 [2, 9]: 53.47%
- Pf_72h_%Growth_Rep1 [3, 8]: 73.25%
- Pf_72h_%Growth_Rep2 [3, 9]: 82.22%

SMILES: CCCCCCCCCCCCCC(=O)N[C@H]1CCOC1=O [Tetradecanoyl-L-homoserine lactone]
- Pf_120h_%Growth_Rep1 [1, 10]: 140.07%
- Pf_120h_%Growth_Rep2 [1, 11]: 68.40%
- Tg_72h_%Growth_Rep1 [2, 12]: 91.68%
- Tg_72h_%Growth_Rep2 [2, 13]: 91.92%
- Pf_72h_%Growth_Rep1 [3, 10]: 70.00%
- Pf_72h_%Growth_Rep2 [3, 11]: 83.15%

SMILES: CC(C)[C@@H]1NC(=O)[C@H](C)OC(=O)[C@@H](C(C)C)NC(=O)[C@@H](C(C)C)OC(=O)[C@H](C(C)C)NC(=O)[C@H](C)OC(=O)[C@@H](C(C)C)NC(=O)[C@@H](C(C)C)OC(=O)[C@H](C(C)C)NC(=O)[C@H](C)OC(=O)[C@@H](C(C)C)NC(=O)[C@@H](C(C)C)OC1=O [Valinomycin]
- activity at 2 µg/mL ([1]; 3D7, P. falciparum, screen at 2 μg/mL, replicate 1, read-out: Pf_120h_%Growth_Rep1): 90.6%
- activity at 2 µg/mL ([1]; 3D7, P. falciparum, screen at 2 μg/mL, replicate 2, read-out: Pf_120h_%Growth_Rep2): 101%
- percent parasite growth at 2 µg/mL ([2]; T. gondii, screen at 2 μg/mL, replicate 1, read-out: Tg_72h_%Growth_Rep1): 122%
- percent parasite growth at 2 µg/mL ([2]; T. gondii, screen at 2 μg/mL, replicate 2, read-out: Tg_72h_%Growth_Rep2): 85.6%
- activity at 2 µg/mL ([3]; 3D7, P. falciparum, screen at 2 μg/mL, replicate 1, read-out: Pf_72h_%Growth_Rep1): 81%
- activity at 2 µg/mL ([3]; 3D7, P. falciparum, screen at 2 μg/mL, replicate 2, read-out: Pf_72h_%Growth_Rep2): 123%

SMILES: CC(C)C[C@@H]1NC(=O)[C@H](C(C)C)NC(=O)[C@H](C(C)C)OC(=O)[C@@H](CC(C)C)NC(=O)[C@@H](C(C)C)NC(=O)[C@H](C(C)C)OC1=O [Sporidesmolide III] (cyclo([Hiv]VL[Hiv][dV][dL]))
- Pf_120h_%Growth_Rep1 [1, 4]: 153.85%
- Pf_120h_%Growth_Rep2 [1, 5]: 76.17%
- Tg_72h_%Growth_Rep1 [2, 6]: 94.68%
- Tg_72h_%Growth_Rep2 [2, 7]: 93.28%
- Pf_72h_%Growth_Rep1 [3, 4]: 74.67%
- Pf_72h_%Growth_Rep2 [3, 5]: 81.35%

SMILES: CC(C)C[C@@H]1NC(=O)[C@H](Cc2c[nH]c3ccccc23)NC1=O [Cyclo(L-Leu-L-Trp)]
- Pf_120h_%Growth_Rep1 [1, 10]: 80.44%
- Pf_120h_%Growth_Rep2 [1, 11]: 87.76%
- Tg_72h_%Growth_Rep1 [2, 12]: 106.88%
- Tg_72h_%Growth_Rep2 [2, 13]: 106.90%
- Pf_72h_%Growth_Rep1 [3, 10]: 84.12%
- Pf_72h_%Growth_Rep2 [3, 11]: 86.68%

SMILES: COC(=O)[C@]1(Cc2ccc(O)cc2)OC(=O)C(O)=C1c1ccc(O)cc1 [Butyrolactone II]
- Pf_120h_%Growth_Rep1 [1, 10]: 89.95%
- Pf_120h_%Growth_Rep2 [1, 11]: 95.11%
- Tg_72h_%Growth_Rep1 [2, 12]: 129.35%
- Tg_72h_%Growth_Rep2 [2, 13]: 92.93%
- Pf_72h_%Growth_Rep1 [3, 10]: 83.73%
- Pf_72h_%Growth_Rep2 [3, 11]: 86.44%
